One may read the MIC as the least concentration at which growth counts as inhibited. The low end stands for greater potency, the high end for weaker potency.

Test in all cases: in vitro antibacterial activity, broth microdilution method (CLSI M31-A2), MIC
Format in all cases: cell-based
On the technique in general: Dilution methods test growth across graded concentrations, often in twofold steps.

Assay [1] relates to M. haemolytica. The protocol: (§1) The compound obtained in the present invention was measured for its in vitro antibacterial activity by a broth microdilution method in accordance with a CLSI method (formerly NCCLS method, […]-A2) (Performance Standards for Antimicrobial Disk and Dilution Susceptibility Tests for Bacteria Isolated from Animals; Approved Standard-Second Edition NCCLS […]-A2 Vol. 22 No. 6 2002). A medium composition used in the measurement is shown below. […] The resultant test drug solution was further subjected to two-step dilution with the liquid medium shown below to prepare a test drug solution at each concentration level. The thus prepared test drug solution at each concentration level was dispensed into a 96-well microplate at 100 μL/well, and a test bacterial strain was inoculated at about 5×10^4 CFU/well. After having been cultured in the presence of 5% CO2 gas at 37° C. for 20 to 24 hours, the test bacterial strain was visually observed for the presence or absence of its growth. A minimum drug concentration completely inhibiting the growth of the test bacterial strain was defined as a minimum inhibitory concentration (hereinafter referred to as MIC). […] Saponin was dissolved with purified water. The solution was sterilized and then added to defibrinated horse blood.

Assay [2] has as its system H. parasuis. The procedure:
as §1

For assay [3], the system named is P. multocida. The procedure:
as §1

Assay [4] has as its system A. pleuropneumoniae. The protocol: as §1
Assay [5] relates to H. somni. The protocol:
as §1

[6] abbreviates: P. multocida (bovine) strain 11272R.
Setting [7] is: P. multocida (bovine) strain 11325-1R.
[8] abbreviates: P. multocida (bovine) strain 11787-24R1.
The mark [9] stands for this setting: P. multocida (bovine) strain ATCC43019.
Setting [10] is: P. multocida (swine) strain 11587-3R.
Setting [11] is: P. multocida (swine) strain 11745-15R.
The mark [12] stands for this setting: P. multocida (swine) strain ATCC43137.
Setting [13] is: A. pleuropneumoniae strain 10895-2R.
Setting [14] is: A. pleuropneumoniae strain 11684-7R.
Where [15] appears, read: A. pleuropneumoniae strain 11796-1R.
Setting [16] is: A. pleuropneumoniae strain 11804-2R.
Setting [17] is: A. pleuropneumoniae strain ATCC27089.

SMILES strings stand for the structures. Converted amounts (≈) assume the structure as drawn.

`CCC(=O)OC1CC(=O)OC(C)CC(O)C(N(C)CCCc2ccnc3ccccc23)C=CC(OC(C)=O)C(C)CC(CC=O)C(OC2OC(C)C(O)C(N(C)C)C2O)C1OC` (stereo not drawn) [(IIIa)]: the MIC was 2 µg/mL (≈ 2.29 µM) in assay [1] (M. haemolytica strain 11443R); 4 µg/mL (≈ 4.59 µM) in assay [1] (M. haemolytica strain 11467-2R); 0.25 µg/mL (≈ 0.287 µM) in assay [2] (H. parasuis strain 11510-1-2R); 2 µg/mL (≈ 2.29 µM) in assay [2] (H. parasuis strain 11640-1R); 4 µg/mL (≈ 4.59 µM) in assay [3] (setting [6]); 2 µg/mL (≈ 2.29 µM) in assay [3] (setting [7]). The MIC was 4 µg/mL (≈ 4.59 µM) in assay [3] (setting [8]); 4 µg/mL (≈ 4.59 µM) in assay [3] (setting [9]); 4 µg/mL (≈ 4.59 µM) in assay [3] (setting [10]); 4 µg/mL (≈ 4.59 µM) in assay [3] (setting [11]); 2 µg/mL (≈ 2.29 µM) in assay [3] (setting [12]); 4 µg/mL (≈ 4.59 µM) in assay [4] (setting [13]). Also, the minimum inhibitory concentration (MIC) in assay [4] (setting [14]) came out at 16 µg/mL (≈ 18.3 µM); in assay [4] (setting [15]) it was 4 µg/mL (≈ 4.59 µM); in assay [4] (setting [16]) it was 4 µg/mL (≈ 4.59 µM); in assay [4] (setting [17]), 4 µg/mL (≈ 4.59 µM); in assay [5] (H. somni strain 11321R), 0.5 µg/mL (≈ 0.573 µM); in assay [5] (H. somni strain 11423-3R), 1 µg/mL (≈ 1.15 µM).

As to `CO[C@@H]1C(OC2O[C@@H](C)C(O)C(N(C)C)C2O)[C@@H](CC=O)C[C@@H](C)[C@@H](OC(C)=O)/C=C/[C@@H](N(C)CCCc2ccnc3ccccc23)[C@@H](O)C[C@@H](C)OC(=O)C[C@H]1OC(C)=O` (stereo partly drawn) [(IIIb)], the MIC in assay [1] (M. haemolytica strain 11443R) worked out at 4 µg/mL (≈ 4.66 µM); in assay [1] (M. haemolytica strain 11467-2R), 4 µg/mL (≈ 4.66 µM); in assay [2] (H. parasuis strain 11510-1-2R), 0.5 µg/mL (≈ 0.583 µM); in assay [2] (H. parasuis strain 11640-1R) it was 4 µg/mL (≈ 4.66 µM); in assay [3] (setting [6]), 4 µg/mL (≈ 4.66 µM); in assay [3] (setting [7]) it was 2 µg/mL (≈ 2.33 µM). In addition, the MIC in assay [3] (setting [8]), in assay [3] (setting [9]), in assay [3] (setting [10]), in assay [3] (setting [11]), in assay [3] (setting [12]) and in assay [4] (setting [13]) was 4 µg/mL (≈ 4.66 µM) each time. In addition, the minimal inhibitory concentration (MIC) in assay [4] (setting [14]) turned out to be 32 µg/mL (≈ 37.3 µM); in assay [4] (setting [15]), 4 µg/mL (≈ 4.66 µM); in assay [4] (setting [16]), 8 µg/mL (≈ 9.32 µM); in assay [4] (setting [17]), 4 µg/mL (≈ 4.66 µM); in assay [5] (H. somni strain 11321R) it was 0.5 µg/mL (≈ 0.583 µM); in assay [5] (H. somni strain 11423-3R), 1 µg/mL (≈ 1.17 µM).

The record behind these values is patent US20140039171A1, “NOVEL MACROLIDE INTERMEDIATE AND NOVEL PRODUCTION PROCESS” (MEIJI SEIKA PHARMA CO., LTD., priority 2011, published 2014).
